The values below come from patent US6194176A, “Recombinant expression of proteins from secretory cell lines” (priority 1997, dated 2001).

The term Ki denotes the dissociation constant of the complex between target and ligand, obtained from inhibition or displacement. Usually Km stands for the substrate concentration at which the rate is half of its maximum.

Like-named read-outs stand apart in the source and are kept apart here.

In one assay the target is Glucokinase (GK). The settings on record: cited from earlier work.
In assay [1] the target is Hexokinases I-III (HK1-111), low Km hexokinases. Conditions: HK1-111, Table 1, cited from earlier work.
The test system of the next assay is RIN 1046-38 cells. As to the kind of experiment: Insulin secretion in static incubation, glucose dose response with or without 5-thioglucose. The class given is cell-based. Conditions: Rattus norvegicus; 2 mM 5-thioglucose, 0.25 mM glucose + 100 μM IBMX, 2 h; read-out: reduction in insulin secretion. How it is done: (§1) Cells were plated in 12-well dishes (Corning Glass Works, Corning, N.Y.) at a density of approximately 250,000 cells per well and allowed to grow for 48 hours. Cells were washed twice for 20 minutes each in HEPES/bicarbonate buffered salt solution (HBBSS; 114 mM NaCl, 4.7 mM KCl, 1.21 mM KH2 PO4, 1.16 mM MgSO4, 25.5 mM NaHCO3, 2.5 mM CaCl2, 10 mM Hepes) with 0.1% bovine serum albumin but without glucose. Secretion studies were then conducted by incubating cells in HBBSS containing 0.5% BSA and with glucose in a range of concentrations from 0 to 20 mM for two hours. These experiments were conducted in the presence and absence of 2 mM 5-thioglucose (Sigma, St. Louis, Mo.) and in the presence or absence of 100 μM isobutylmethylxanthine (IBMX). Following incubation, media was collected and assayed for insulin by radioimmunoassay with the DPC method, as described above. Secretion was normalized for cell number by measuring total protein in each well by the method of Bradford (1976), using the kit from Bio-Rad, Hercules, Calif.

In a further assay the test system is EP 40/110 cells. The assay is described as above. Type of assay: cell-based, rat. The settings on record: 2 mM 5-thioglucose, + IBMX, 2 h. As to the method:
as §1

A further assay relates to EP 49/206 cells. The assay is described as above. The class given is cell-based, rat. The settings on record: 2 mM 5-thioglucose, + IBMX, 2 h. How it is done:
as §1

The test system of the next assay is R5C.I-17 cells. The description is as above. The class given is cell-based, rat. As to the method: as §1

With `O=P(O)(O)OC[C@H]1OC(O)[C@H](O)[C@@H](O)[C@@H]1O` (some centres unmarked) [G-6-P, glucose-6-phosphate], the inhibition constant (Ki) is 60 mM at Glucokinase (GK) (GK of Table 1, read-out: Ki G-6-P) and 0.2 to 0.9 mM in assay [1] (read-out: Ki G-6-P). Also, the “glucose-6-phosphate concentration required for appreciable inhibition” value in the assay with Glucokinase (GK) was greater than 10 mM.

Regarding `OC[C@H]1OC(O)[C@H](O)[C@@H](O)[C@@H]1O` (some centres unmarked) [glucose], the Michaelis-Menten constant (Km) in the assay on Glucokinase (GK) (GK of Table 1, read-out: Km glucose) was 5000 to 12000 µM; with Glucokinase (GK) (approximate, read-out: Km for glucose), 6000 to 8000 µM; in assay [1] (read-out: Km glucose), 20 to 130 µM.

Regarding `Nc1ncnc2c1ncn2[C@@H]1O[C@H](COP(=O)(O)OP(=O)(O)OP(=O)(O)O)[C@@H](O)[C@H]1O` [ATP], the Km is 500 µM in the assay with Glucokinase (GK) (GK of Table 1, read-out: Km ATP) and 200 to 500 µM in assay [1] (read-out: Km ATP).

As for `O=C[C@H](O)[C@@H](O)[C@H](O)[C@H](S)CO` [5-thioglucose], the inhibition at 2000 µM in the assay with RIN 1046-38 cells is 50%; in the assay with EP 40/110 cells (Rattus norvegicus, read-out: reduction of insulin secretion response to 0.5 mM glucose), 70%; in the assay on R5C.I-17 cells (Rattus norvegicus, 2 mM 5-thioglucose, no secretagogues or IBMX alone, 2 h, read-out: suppression of basal insulin secretion), roughly 50%. In the assay with EP 40/110 cells, the “effect on insulin secretion response to 0.25 mM glucose” value is “completely eliminated”. In the assay on EP 49/206 cells, the “effect on insulin secretion response to 0.05 and 0.25 mM glucose” value was “completely eliminated”. Further, the “maximal fold-response of insulin secretion” value with R5C.I-17 cells (2 mM 5-thioglucose present, seen at 1 mM glucose + IBMX (5.7-fold without 5-thioglucose)) came to 3.9 fold.
